Test results: patent EP0327744A1, “Oxytocin and vasopressin antagonists” (Merck & Co., Inc., priority 1988, dated 1989)
Like-named read-outs stand apart in the source and are kept apart here. Each block holds one molecule with its values, some of them ahead of it. Numbered stars: 1 amine (or outer) side, 2 acyl side, 3 side chain; on linkers, the order of the positions; unused ones are H or OH. Square brackets hold non-standard residues; d marks the D form. Peptide text beside a SMILES is read from it. ξ: configuration not given here. ξN(OH)Ile(3ξ) = CCC(C)C(NO)C(=O)O; NMeF = CN[CH](Cc1ccccc1)C(=O)O; X1 = O=C(C1CCCNN1[*:1])[*:2]

Columns and labels:
[1] = molecular target: T1, V₂(antidiuretic)-receptor (Rattus norvegicus, UniProt Q00788); assay: [³H]Arginine Vasopressin Binding Assay, kidney medulla membranes (V₂)
T1 construct: crude membrane preparation of rat liver (V₁ receptor) or kidney medulla (V₂ receptor); from tissue; host or cells: rat kidney medulla, crude membrane preparation
Description: (§1) The table summarizes the in vitro potencies of the various components to compete for ³H-vasopressin binding at two proposed vasopressin receptor subtypes (V₁, V₂), as well as to inhibit vasopressin-stimulated adenylate cyclase activity, a further measure of vasopressin antagonism.
(§2) The [³H]Arginine Vasopressin Binding Assay is an in vitro procedure which was adapted from the method of Guillon et al., Eur. J. Pharmacol. 85: […] (1982). It measures the relative affinity of the various test compounds for vasopressin receptor(s) labelled by [³H]vasopressin. Vasopressin receptors have been divided into two subtypes pharmacologically: the V₁(pressor)-receptor found in liver and vascular smooth muscle and the V₂(antidiuretic)-receptor found in kidney medulla. The binding assay uses a crude membrane preparation of rat liver (V₁ receptor) or kidney medulla (V₂ receptor) which is incubated with [³H]vasopressin in the presence or absence of the test compound. The IC₅₀ values (concentrations to inhibit [³H]vasopressin binding by 50%) for the various compounds (see Table III) are measures of their potencies and are inversely related to their affinities.

[2] = molecular target: T2, Vasopressin-stimulated adenylate cyclase in kidney medulla (V₂) (Rattus norvegicus, UniProt Q00788); assay: Vasopressin-stimulated adenylate cyclase functional assay in kidney medulla (V₂ antagonism); type: biochemical
T2 construct: Vasopressin-stimulated adenylate cyclase in kidney medulla, therefore, is used as a functional assay; from tissue
Description: as §1
Vasopressin exerts its antidiuretic effects on the kidney through the stimulation of adenylate cyclase activity. Vasopressin-stimulated adenylate cyclase in kidney medulla, therefore, is used as a functional assay to determine the potencies of the various test compounds as V₂-vasopressin antagonists. In this assay, the IC₅₀ values obtained for the various compounds (see Table III) are measures of their potencies to inhibit the vasopressin-stimulated conversion of ATP to cAMP by adenylate cyclase. This method was adapted from Seamon et al., PNAS 78: 3363-3367 (1981).

V₁(pressor)-receptor = molecular target: T3, V₁(pressor)-receptor (Rattus norvegicus, UniProt P30560); assay: [³H]Arginine Vasopressin Binding Assay, liver membranes (V₁)
T3 construct: crude membrane preparation of rat liver (V₁ receptor); from tissue; host or cells: rat liver, crude membrane preparation
Description: as §1, §2

oxytocin receptor = molecular target: T4, oxytocin receptor (Rattus norvegicus, UniProt P70536); assay: [³H]Oxytocin Binding Assay (crude membrane preparation of rat uterus); conditions: inhibition of [³H]oxytocin binding, rat uterus membranes; read-out: IC₅₀ (nM) [³H]OT (uterus)
T4 construct: crude membrane preparation of rat uterus as the source of oxytocin receptors; from tissue; host or cells: rat uterus, crude membrane preparation
T4 sequence (P70536 1-388): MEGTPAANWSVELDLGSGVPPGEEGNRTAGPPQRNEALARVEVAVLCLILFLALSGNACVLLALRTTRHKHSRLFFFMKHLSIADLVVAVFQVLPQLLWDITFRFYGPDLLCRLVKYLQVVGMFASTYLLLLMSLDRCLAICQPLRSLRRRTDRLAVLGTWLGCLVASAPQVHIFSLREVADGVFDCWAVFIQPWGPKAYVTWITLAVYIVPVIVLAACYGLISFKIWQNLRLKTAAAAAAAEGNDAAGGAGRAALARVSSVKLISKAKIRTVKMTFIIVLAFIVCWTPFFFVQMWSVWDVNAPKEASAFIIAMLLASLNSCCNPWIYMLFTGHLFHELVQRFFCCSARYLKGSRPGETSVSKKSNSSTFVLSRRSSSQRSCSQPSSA
Description: Oxytocin receptors have been identified in mammalian uterine tissue through the use of in vitro radioligand binding assays. These receptor binding sites mediate the contractile response of the uterine myometrium to oxytocin. […] The assay uses a crude membrane preparation of rat uterus as the source of oxytocin receptors. […]

[3] = IC₅₀ Values ³H-Arg⁸-Vasopressin Binding Kidney (V₂), rat kidney medulla membranes, mean ± standard error
[4] = IC₅₀ Values ³H-Arg⁸-Vasopressin Binding Liver (V₁), rat liver membranes, mean ± standard error

T2 sequence (Q00788 whole entry): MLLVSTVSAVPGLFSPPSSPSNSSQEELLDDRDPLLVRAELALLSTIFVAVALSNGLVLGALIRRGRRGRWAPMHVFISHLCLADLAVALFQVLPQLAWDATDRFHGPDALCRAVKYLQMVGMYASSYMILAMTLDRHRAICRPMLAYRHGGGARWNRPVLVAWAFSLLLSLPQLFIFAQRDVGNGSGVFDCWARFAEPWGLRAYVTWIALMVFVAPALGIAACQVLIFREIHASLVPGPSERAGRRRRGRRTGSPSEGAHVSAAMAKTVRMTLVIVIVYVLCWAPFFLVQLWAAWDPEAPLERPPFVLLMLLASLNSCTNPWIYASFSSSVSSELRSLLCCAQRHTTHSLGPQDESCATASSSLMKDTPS
T1 sequence (Q00788 whole entry): as above
T3 sequence (P30560 whole entry): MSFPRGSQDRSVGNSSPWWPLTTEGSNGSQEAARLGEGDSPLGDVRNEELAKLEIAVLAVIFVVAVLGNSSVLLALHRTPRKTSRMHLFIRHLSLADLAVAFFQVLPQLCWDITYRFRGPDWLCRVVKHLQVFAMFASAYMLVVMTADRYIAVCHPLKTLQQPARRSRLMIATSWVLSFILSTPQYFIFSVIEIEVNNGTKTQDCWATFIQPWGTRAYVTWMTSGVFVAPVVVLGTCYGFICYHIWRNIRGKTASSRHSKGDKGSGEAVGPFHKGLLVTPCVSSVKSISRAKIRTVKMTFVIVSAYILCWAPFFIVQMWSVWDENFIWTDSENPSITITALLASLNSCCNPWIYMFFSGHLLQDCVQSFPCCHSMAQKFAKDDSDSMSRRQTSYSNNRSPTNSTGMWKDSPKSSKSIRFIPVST

Compound: CC(C)C1C(=O)N2NCCCC2C(=O)N2NCCCC2C(=O)N(C)C(Cc2ccccc2)C(=O)N2CCCC2C(=O)NC(Cc2ccccc2)C(=O)N1O (centres unmarked) [Component A]
IC50 [1, 3]: 7.9 µM | IC50 [2]: 19 µM | IC50 (V₁(pressor)-receptor; [4]): 6.8 µM

Compound: CC(C)CC1C(=O)N2NCCCC2C(=O)N2NCCCC2C(=O)N(C)C(Cc2ccccc2)C(=O)N2CCCC2C(=O)NC(C(C)C)C(=O)N1O (centres unmarked) [Component B]
IC50 [1, 3]: 35.3 ± 6.1 µM | IC50 [2]: 62.7 ± 4.6 µM | IC50 (V₁(pressor)-receptor; [4]): 67.3 ± 16.5 µM

Compound: CC(C)CC1C(=O)N2NCCCC2C(=O)N2NCCCC2C(=O)N(C)C(Cc2ccccc2)C(=O)N2CCCC2C(=O)NC(Cc2ccccc2)C(=O)N1O (centres unmarked) [Component C]
IC50 ([1]; IC₅₀ Values ³H-Arg⁸-Vasopressin Binding Kidney (V₂), rat kidney medulla membranes, molar IC₅₀ in brackets, based on MW of 700): 13 µM | IC50 ([1]; IC₅₀ Values ³H-Arg⁸-Vasopressin Binding Kidney (V₂), rat kidney medulla membranes, value in µg/ml (exact MW not known)): 11.9 µM | IC50 ([2]; read-out: IC₅₀ Values AVP-stimulated Ad. Cyclase Kidney (V₂), kidney medulla, molar IC₅₀ in brackets, based on MW of 700): 13 µM | IC50 ([2]; read-out: IC₅₀ Values AVP-stimulated Ad. Cyclase Kidney (V₂), kidney medulla, value in µg/ml (exact MW not known)): 12.1 µM | IC50 (V₁(pressor)-receptor; IC₅₀ Values ³H-Arg⁸-Vasopressin Binding Liver (V₁), rat liver membranes, molar IC₅₀ in brackets, based on MW of 700): 6 µM | IC50 (V₁(pressor)-receptor; IC₅₀ Values ³H-Arg⁸-Vasopressin Binding Liver (V₁), rat liver membranes, value in µg/ml (exact MW not known)): 5.53 µM

IC50 ([1]; rat kidney medulla membranes, molar IC₅₀ in brackets, based on MW of 700, read-out: IC₅₀ Values ³H-Arg⁸-Vasopressin Binding Kidney (V₂) (converted)): 19 µM | IC50 ([1]; rat kidney medulla membranes, value in µg/ml (exact MW not known), read-out: IC₅₀ Values ³H-Arg⁸-Vasopressin Binding Kidney (V₂) (converted)): 18.3 µM | IC50 ([2]; kidney medulla, molar IC₅₀ in brackets, based on MW of 700, read-out: IC₅₀ Values AVP-stimulated Ad. Cyclase Kidney (V₂) (converted)): 20 µM | IC50 ([2]; kidney medulla, value in µg/ml (exact MW not known), read-out: IC₅₀ Values AVP-stimulated Ad. Cyclase Kidney (V₂) (converted)): 19.3 µM | IC50 (V₁(pressor)-receptor; rat liver membranes, molar IC₅₀ in brackets, based on MW of 700, read-out: IC₅₀ Values ³H-Arg⁸-Vasopressin Binding Liver (V₁) (converted)): 30 µM | IC50 (V₁(pressor)-receptor; rat liver membranes, value in µg/ml (exact MW not known), read-out: IC₅₀ Values ³H-Arg⁸-Vasopressin Binding Liver (V₁) (converted)): 28.4 µM
Compound: CCC(C)C1NC(=O)C2CCCN2C(=O)C(Cc2ccccc2)N(C)C(=O)C2CCCNN2C(=O)C2CCCNN2C(=O)C(CC(C)C)N(O)C1=O (centres unmarked) [Component D]

Compound: CCC(C)C1NC(=O)C(Cc2ccccc2)NC(=O)C2CCCN2C(=O)C(Cc2ccccc2)N(C)C(=O)C2CCCNN2C(=O)C2CCCNN2C1=O (centres unmarked) [Example 9] (cyclo([X1][X1][NMeF]PFI); configuration not given here)
IC50 (oxytocin receptor): 170 ± 15 nM

Compound: CCC(C)C1C(=O)N2NCCCC2C(=O)N2NCCCC2C(=O)N(C)C(Cc2ccccc2)C(=O)N2CCCC2C(=O)NC(Cc2ccccc2)C(=O)N1O (centres unmarked) [Formula I] (cyclo([ξN(OH)Ile(3ξ)][X1][X1][NMeF]PF); configuration not given here)
IC50 [1]: 9.8 ± 1.7 µM | IC50 [2]: 10.2 ± 1.1 µM | IC50 (V₁(pressor)-receptor): 11.7 ± 1.7 µM | IC50 (oxytocin receptor): 370 ± 70 nM
